The values below come from patent publication US8399476B2, “Imidazo[1,2-a]pyridines and their use as pharmaceuticals” (Sanofi, priority 2007, dated 2013).

For this experiment, the system named is eNOS promoter. Put plainly: Activation of eNOS transcription (eNOS promoter firefly luciferase reporter gene assay). It is filed as cell-based. The settings on record: human endothelial cell line stably transfected with eNOS promoter-luciferase construct, 18 h incubation; read-out: EC50 values of transcription induction ratios (TIR). Here is the method:
Activation of eNOS transcription was measured as described in detail by Li et al., “Activation of protein kinase C alpha and/or epsilon enhances transcription of the human endothelial nitric oxide synthase gene”, Mol. Pharmacol. 53 (1998) 630. Briefly, a 3.5 kB long fragment 5′ of the starting codon of the eNOS gene was cloned, sequenced and cloned in firefly luciferase expression plasmids to monitor activation of the eNOS promoter by reporter gene activity. A human endothelial cell line stable transfected and expressing this promoter-reporter construct was used for compound testing. Cells were incubated for 18 h with the compounds.
All compounds were dissolved in sterile dimethyl sulfoxide (DMSO). A final concentration of 0.5% DMSO in complete medium was allowed. Induction of reporter gene expression in these cells was measured using a standard luciferase assay system (Promega, Cat. No. E150) according to the manufacturer's instructions. Luciferase induction in cells incubated with compounds were compared to those incubated with solvent alone. The ratio of both activities (transcription induction ratio, TIR) was plotted as a function of compound concentration. Typically, TIR values started at low concentrations at a ratio of 1, indicating no compound effect, and extended up to a maximum TIR value TIR(max) which indicates the increase of the eNOS transcription. EC50 values of transcription induction ratios as a function of compound concentration were determined graphically.
(A reporter such as luciferase makes a cellular process visible.)

pEC50: −log10 of the molar value. Where a name gives a salt, the structure may show the parent alone.

Regarding `COC(=O)c1ccc2nc(-c3cc(F)cc(F)c3)cn2c1` [Example 32, 2-(3,5-Difluoro-phenyl)-imidazo[1,2-a]pyridine-6-carboxylic acid methyl ester], the pEC50 is more than 6.30.
Regarding `COC(=O)c1ccc2nc(-c3ccc(Br)cc3)cn2c1` [Example 12, 2-(4-Bromo-phenyl)-imidazo[1,2-a]pyridine-6-carboxylic acid methyl ester], the pEC50 was more than 6.30.
The result for `COC(=O)c1ccc2nc(-c3ccccc3)c(C)n2c1` [Example 3, 3-Methyl-2-phenyl-imidazo[1,2-a]pyridine-6-carboxylic acid methyl ester] reads more than 6.30; that for `COC(=O)c1ccc2nc(-c3ccccc3F)cn2c1` [Example 5, 2-(2-Fluoro-phenyl)-imidazo[1,2-a]pyridine-6-carboxylic acid methyl ester], more than 6.30.
The result for `COC(=O)c1ccc2nc(-c3ccc(N)cc3)cn2c1` [Example 44, 2-(4-Amino-phenyl)-imidazo[1,2-a]pyridine-6-carboxylic acid methyl ester] reads more than 6.30; that for `COC(=O)c1ccc2nc(-c3ccc(C)cc3)cn2c1` [Example 7, 2-p-Tolyl-imidazo[1,2-a]pyridine-6-carboxylic acid methyl ester], more than 6.30.
On to `COC(=O)c1ccc2nc(-c3cccc(Br)c3)cn2c1` [Example 24, 2-(3-Bromo-phenyl)-imidazo[1,2-a]pyridine-6-carboxylic acid methyl ester], for which the pEC50 is more than 6.30.
On to `N=C(NO)c1ccc2nc(-c3ccc(F)cc3)cn2c1` [Example 56, 2-(4-Fluoro-phenyl)-N-hydroxy-imidazo[1,2-a]pyridine-6-carboxamidine], for which the pEC50 was more than 6.30.
As for `COC(=O)c1ccc2nc(-c3ccccc3)cn2c1` [Example 13, 2-Phenyl-imidazo[1,2-a]pyridine-6-carboxylic acid methyl ester], the pEC50 is more than 6.30.
The value for `O=CNc1ccc2nc(-c3ccc(F)cc3)cn2c1` [Example 67, N-[2-(4-Fluoro-phenyl)-imidazo[1,2-a]pyridin-6-yl]-formamide] was more than 6.30; that for `COC(=O)c1ccc2nc(-c3ccc(-c4ccccc4)cc3)cn2c1` [Example 37, 2-Biphenyl-4-yl-imidazo[1,2-a]pyridine-6-carboxylic acid methyl ester] was more than 6.30.
Consider `COC(=O)c1ccc2nc(-c3cccc(F)c3)cn2c1` [Example 14, 2-(3-Fluoro-phenyl)-imidazo[1,2-a]pyridine-6-carboxylic acid methyl ester], for which the pEC50 is more than 6.30.
The value for `COC(=O)c1ccc2nc(-c3cccc(Cl)c3)cn2c1` [Example 31, 2-(3-Chloro-phenyl)-imidazo[1,2-a]pyridine-6-carboxylic acid methyl ester] was more than 6.30; that for `COC(=O)c1ccc2nc(-c3ccc(Br)cc3)c(C)n2c1` [Example 2, 2-(4-Bromo-phenyl)-3-methyl-imidazo[1,2-a]pyridine-6-carboxylic acid methyl ester] was more than 6.30; that for `COC(=O)c1ccc2nc(-c3ccc4c(c3)OCCO4)cn2c1` [Example 34, 2-(2,3-Dihydro-benzo[1,4]dioxin-6-yl)-imidazo[1,2-a]pyridine-6-carboxylic acid methyl ester] was more than 6.30.
For the compound `COC(=O)c1ccc2nc(-c3ccc(F)cc3)cn2c1` [Example 1, 2-(4-Fluoro-phenyl)-imidazo[1,2-a]pyridine-6-carboxylic acid methyl ester], the pEC50 is more than 6.30.
Take `COC(=O)c1ccc2nc3c(n2c1)Cc1ccccc1-3` [Example 42, 11H-Indeno[1′,2′:4,5]imidazo[1,2-a]pyridine-8-carboxylic acid methyl ester]: the pEC50 was more than 6.30.
The result for `Cc1ccc(-c2cn3cc(C(=O)O)ccc3n2)cc1` [Example 46, 2-p-Tolyl-imidazo[1,2-a]pyridine-6-carboxylic acid] reads more than 6.30.
The result for `COC(=O)c1ccc2nc(-c3ccc(F)c(F)c3)cn2c1` [Example 19, 2-(3,4-Difluoro-phenyl)-imidazo[1,2-a]pyridine-6-carboxylic acid methyl ester] reads more than 6.30; that for `Fc1ccc(-c2cn3cc(Br)ccc3n2)cc1` [Example 61, 6-Bromo-2-(4-fluoro-phenyl)-imidazo[1,2-a]pyridine], more than 6.30; that for `CCOC(=O)ONC(=N)c1ccc2nc(-c3ccc(F)cc3)cn2c1` [Example 60, 2-(4-Fluoro-phenyl)-N-ethoxycarbonyloxy-imidazo[1,2-a]pyridine-6-carboxamidine], more than 6.30.
As to `COC(=O)c1ccc2nc(-c3ccc(OC)cc3)cn2c1` [Example 10, 2-(4-Methoxy-phenyl)-imidazo[1,2-a]pyridine-6-carboxylic acid methyl ester], the pEC50 is more than 6.30.
On to `COC(=O)c1ccc2nc(-c3ccc([N+](=O)[O-])cc3)cn2c1` [Example 38, 2-(4-Nitro-phenyl)-imidazo[1,2-a]pyridine-6-carboxylic acid methyl ester], for which the pEC50 was more than 6.30.
The value for `Nc1ccc2nc(-c3ccc(F)cc3)cn2c1` [Example 66, 2-(4-Fluoro-phenyl)-imidazo[1,2-a]pyridin-6-ylamine] was more than 6.30; that for `COC(=O)c1ccc2nc(-c3cccc([N+](=O)[O-])c3)cn2c1` [Example 8, 2-(3-Nitro-phenyl)-imidazo[1,2-a]pyridine-6-carboxylic acid methyl ester] was more than 6.30; that for `COC(=O)c1ccc2nc(-c3ccc(Cl)cc3Cl)cn2c1` [Example 28, 2-(2,4-Dichloro-phenyl)-imidazo[1,2-a]pyridine-6-carboxylic acid methyl ester] was more than 6.30.
For `CCN(CC)c1ccc(-c2cn3cc(C#N)ccc3n2)cc1` [Example 53, 2-(4-Diethylamino-phenyl)-imidazo[1,2-a]pyridine-6-carbonitrile trifluoroacetic acid salt], the pEC50 was more than 6.30.
The value for `COC(=O)c1ccc2nc(-c3ccc(Br)c(S(N)(=O)=O)c3)cn2c1` [Example 21, 2-(4-Bromo-3-sulfamoyl-phenyl)-imidazo[1,2-a]pyridine-6-carboxylic acid methyl ester] was more than 6.30.
The result for `COC(=O)c1ccc2nc(-c3cccc(C(F)(F)F)c3)cn2c1` [Example 33, 2-(3-Trifluoromethyl-phenyl)-imidazo[1,2-a]pyridine-6-carboxylic acid methyl ester] reads more than 6.30; that for `COC(=O)c1ccc2nc(-c3ccc(C)cc3C)cn2c1` [Example 25, 2-(2,4-Dimethyl-phenyl)-imidazo[1,2-a]pyridine-6-carboxylic acid methyl ester], more than 6.30.
`COC(=O)c1ccc2nc(-c3ccc(OC(F)(F)F)cc3)cn2c1` [Example 16, 2-(4-Trifluoromethoxy-phenyl)-imidazo[1,2-a]pyridine-6-carboxylic acid methyl ester]: the pEC50 was more than 6.30.
The value for `COC(=O)c1ccc2nc(-c3ccccc3Cl)cn2c1` [Example 20, 2-(2-Chloro-phenyl)-imidazo[1,2-a]pyridine-6-carboxylic acid methyl ester] was more than 6.30; that for `COC(=O)c1ccc2nc(-c3ccc(C(F)(F)F)cc3)cn2c1` [Example 15, 2-(4-Trifluoromethyl-phenyl)-imidazo[1,2-a]pyridine-6-carboxylic acid methyl ester] was more than 6.30; that for `CCN(CC)c1ccc(-c2cn3cc(C(=O)OC)ccc3n2)cc1` [Example 17, 2-(4-Diethylamino-phenyl)-imidazo[1,2-a]pyridine-6-carboxylic acid methyl ester] was more than 6.30.
Consider `N#Cc1ccc2nc(-c3ccc(F)cc3)cn2c1` [Example 52, 2-(4-Fluoro-phenyl)-imidazo[1,2-a]pyridine-6-carbonitrile], for which the pEC50 is more than 6.30.
The value for `Cc1ccc(-c2cn3cc(/C(N)=N/O)ccc3n2)cc1` [Example 57, N-Hydroxy-2-p-tolyl-imidazo[1,2-a]pyridine-6-carboxamidine] was more than 6.30; that for `Cc1ccc(-c2cn3cc(C#N)ccc3n2)cc1` [Example 54, 2-p-Tolyl-imidazo[1,2-a]pyridine-6-carbonitrile] was more than 6.30.
The result for `COC(=O)c1ccc2nc(-c3cccc(C#N)c3)cn2c1` [Example 23, 2-(3-Cyano-phenyl)-imidazo[1,2-a]pyridine-6-carboxylic acid methyl ester] reads more than 6.30.
